In data set [1] the test system is HT-29. Description: Anti-necroptic activity against human HT-29 cells assessed as cell viability pretreated with compound followed by TNF-alpha/Smac mimetic/Z-VAD-FMK stimulation for 16 hrs by Cell Titer Glo assay. It is filed as functional, cell-based. A general note: ATP-based viability assays read luminescence as a measure of living cells.
The subject of data set [2] is Mus musculus. Description: Anti-necroptic activity in TNF-alpha/Z-VAD-FMK-induced SIRS C57BL/6J mouse model assessed as survival rate at 2.5 mg/kg, po pre-administered via gavage for 1 hr followed by […] of Z-VAD-FMK stimulation for 15 mins and subsequent TNF-alpha stimulation for 45 mins and re-current […] of Z-VAD-FMK stimulation and measured after 60 hrs relative to control. The class given is functional. The note with it: 62 h, time 3720 min.

Data set [3] in a line: Cytotoxicity against human HT-29 cells by Cell Titer Glo assay. It is filed as toxicity, cell-based.
A further data set deals with L-292. The data set can be described thus: Anti-necroptic activity against mouse […] cells assessed as cell viability pretreated with compound followed by TNF-alpha/Z-VAD-FMK stimulation for 12 hrs by Cell Titer Glo assay. The class given is functional, cell-based. The note with it: dose 0.078-10 µM.
For data set [4], the system named is HT-29. Description: Anti-necroptic activity against human HT-29 cells assessed as cell viability upto 10 uM pretreated with compound followed by TNF-alpha/Cycloheximide stimulation for 36 hrs by Cell Titer Glo assay. The class given is functional, cell-based.
The target of data set [5] is T1, Receptor-interacting serine/threonine-protein kinase 1 (Homo sapiens) (UniProt Q13546).
T1 sequence (whole entry): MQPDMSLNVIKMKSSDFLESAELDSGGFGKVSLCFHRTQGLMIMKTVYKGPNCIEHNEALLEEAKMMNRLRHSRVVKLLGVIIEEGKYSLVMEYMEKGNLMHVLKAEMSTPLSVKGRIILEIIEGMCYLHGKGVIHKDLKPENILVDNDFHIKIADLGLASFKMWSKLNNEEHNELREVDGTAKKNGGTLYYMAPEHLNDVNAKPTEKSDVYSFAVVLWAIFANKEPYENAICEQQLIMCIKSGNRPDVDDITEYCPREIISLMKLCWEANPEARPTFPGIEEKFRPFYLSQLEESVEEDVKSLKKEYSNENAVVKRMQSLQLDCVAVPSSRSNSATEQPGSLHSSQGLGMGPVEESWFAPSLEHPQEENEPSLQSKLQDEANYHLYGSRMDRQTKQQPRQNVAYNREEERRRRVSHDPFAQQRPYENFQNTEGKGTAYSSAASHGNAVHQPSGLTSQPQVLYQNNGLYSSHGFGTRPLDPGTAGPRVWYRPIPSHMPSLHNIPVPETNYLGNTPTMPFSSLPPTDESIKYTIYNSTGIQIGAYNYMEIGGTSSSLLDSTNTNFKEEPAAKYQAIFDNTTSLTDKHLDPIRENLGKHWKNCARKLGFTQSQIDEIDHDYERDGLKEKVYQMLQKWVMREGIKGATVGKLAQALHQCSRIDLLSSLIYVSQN
The data set can be described thus: Inhibition of RIPK1 in human HT-29 cells assessed as decrease in MLKL phosphorylation at 10 nM preincubated for 6 hrs followed by TSZ stimulation by Western blot analysis relative to control. It is filed as cell-based. A general note: Immunoblotting shows a protein as a band on a membrane.

In data set [6] the target is T1, Receptor-interacting serine/threonine-protein kinase 1 (Homo sapiens). The data set can be described thus: Inhibition of RIPK1 phosphorylation in human HT-29 cells preincubated for 6 hrs followed by TSZ stimulation by Western blot analysis. The class given is cell-based. The note with it: dose 1-10 nM.
Data set [7] shares this target. Description: Inhibition of RIPK1 in human HT-29 cells assessed as decrease in RIPK3 phosphorylation at 10 nM preincubated for 6 hrs followed by TSZ stimulation by Western blot analysis relative to control. It is filed as cell-based.
The target is the same in data set [8]. The data set can be described thus: Inhibition of RIPK1 in human HT-29 cells assessed as decrease in RIPK3 phosphorylation preincubated for 6 hrs followed by TSZ stimulation by Western blot analysis. It is filed as cell-based. The note with it: dose 1-10 nM.
For data set [9] the target is unchanged. Description: Inhibition of RIPK1 phosphorylation in human HT-29 cells at 10 nM preincubated for 6 hrs followed by TSZ stimulation by Western blot analysis relative to control. The class given is cell-based.
The test system of data set [10] is Mus musculus. Description: Anti-necroptic activity in TNF-alpha/Z-VAD-FMK-induced SIRS C57BL/6J mouse model assessed as survival rate at 10 mg/kg, po pre-administered via gavage for 1 hr followed by […] of Z-VAD-FMK stimulation for 15 mins and subsequent TNF-alpha stimulation for 45 mins and re-current […] of Z-VAD-FMK stimulation measured after 4 hrs post- TNF-alpha stimulation relative to control. The class given is functional. The note with it: 6 h, time 360 min.

Data set [11] has as its system HT-29. The data set can be described thus: Anti-necroptic activity against human HT-29 cells assessed as cell viability pretreated with compound followed by TNF-alpha/Smac mimetic/Z-VAD-FMK stimulation for 12 hrs by Cell Titer Glo assay. The class given is functional, cell-based. The note with it: dose 0.39-50 nM.
The test system of data set [12] is Mus musculus. The data set can be described thus: Anti-necroptic activity in TNF-alpha/Z-VAD-FMK-induced SIRS C57BL/6J mouse model assessed as decrease in hypothermia at 2.5 to 10 mg/kg, po pre-administered via gavage for 1 hr followed by […] of Z-VAD-FMK stimulation for 15 mins and subsequent TNF-alpha stimulation for 45 mins and re-current […] of Z-VAD-FMK stimulation measured after 2 to 3 hrs post- TNF-alpha stimulation. It is filed as functional, organism-based. The note with it: dose 2.5-10 mg/kg, time 240-300 min.

Data set [13] relates to Mus musculus. Description: Anti-necroptic activity in TNF-alpha/Z-VAD-FMK-induced SIRS C57BL/6J mouse model assessed as decrease in serum IL-6 level at 2.5 to 10 mg/kg, po pre-administered via gavage for 1 hr followed by […] of Z-VAD-FMK stimulation for 15 mins and subsequent TNF-alpha stimulation for 45 mins and re-current […] of Z-VAD-FMK stimulation measured after 4 hrs post- TNF-alpha stimulation by ELISA. The note with it: dose 2.5-10 mg/kg, time 360.0 min. The class given is functional, organism-based. For orientation: In an ELISA, binding on a coated surface is turned into a signal by an enzyme label.

The subject of data set [14] is HT-29. Description: Anti-necroptic activity against human HT-29 cells assessed as cell viability upto 10 uM pretreated with compound followed by TNF-alpha/Smac mimetic stimulation for 24 hrs by Cell Titer Glo assay. It is filed as functional, cell-based.
For data set [15], the system named is Mus musculus. The data set can be described thus: Anti-necroptic activity in TNF-alpha/Z-VAD-FMK-induced SIRS C57BL/6J mouse model assessed as decrease in serum IL-1beta level at 2.5 to 10 mg/kg, po pre-administered via gavage for 1 hr followed by […] of Z-VAD-FMK stimulation for 15 mins and subsequent TNF-alpha stimulation for 45 mins and re-current […] of Z-VAD-FMK stimulation measured after 4 hrs post- TNF-alpha stimulation by ELISA. The class given is functional, organism-based. The note with it: dose 2.5-10 mg/kg, time 360.0 min.

Data set [16] has as its system Mus musculus. Description: Anti-necroptic activity in TNF-alpha/Z-VAD-FMK-induced SIRS C57BL/6J mouse model assessed as survival rate at 2.5 mg/kg, po pre-administered via gavage for 1 hr followed by […] of Z-VAD-FMK stimulation for 15 mins and subsequent TNF-alpha stimulation for 45 mins and re-current […] of Z-VAD-FMK stimulation measured after 4 hrs post- TNF-alpha stimulation relative to control. It is filed as functional. The note with it: 6 h, time 360 min.

Data set [17] concerns HT-29. The data set can be described thus: Anti-necroptic activity against human HT-29 cells assessed as cell viability pretreated with compound followed by TNF-alpha/Cycloheximide/Z-VAD-FMK stimulation for 16 hrs by Cell Titer Glo assay. The note with it: dose 0.39-50 nM. It is filed as functional, cell-based.
In data set [18] the test system is Mus musculus. Description: Anti-necroptic activity in TNF-alpha/Z-VAD-FMK-induced SIRS C57BL/6J mouse model assessed as survival rate at 5 mg/kg, po pre-administered via gavage for 1 hr followed by […] of Z-VAD-FMK stimulation for 15 mins and subsequent TNF-alpha stimulation for 45 mins and re-current […] of Z-VAD-FMK stimulation measured after 4 hrs post- TNF-alpha stimulation relative to control. It is filed as functional. The note with it: 6 h, time 360 min.

Data set [19] concerns the target T1, Receptor-interacting serine/threonine-protein kinase 1 (Homo sapiens). Description: Inhibition of RIPK1 phosphorylation in human HT-29 cells assessed as decrease in necrosomes development at 10 nM incubated for 6 hrs by Western blot analysis. The class given is cell-based.
For data set [20] the target is unchanged. The data set can be described thus: Inhibition of RIPK1 in human HT-29 cells assessed as decrease in MLKL phosphorylation preincubated for 6 hrs followed by TSZ stimulation by Western blot analysis relative to control. The note with it: dose 1-10 nM. The class given is cell-based.

Molecules are shown by their SMILES. Activity calls are given as the source filed them. No cut-off for these calls is given here. Where only a bound is given, the exact number is not on record here.

As a reminder, the EC50 is the concentration giving half of the maximal effect. What is called CC50 is the concentration giving 50% cytotoxicity. Lower therefore signals harm at low concentration. As to `CN1C(=O)[C@@H](NC(=O)c2nnc(Cc3ccccc3)[nH]2)COc2ccccc21` [GSK2982772], the EC50 with HT-29 [1] worked out at 2.9 nM. The survival at 2.5 mg/kg with Mus musculus [2] is 50%. Moreover, in data set [3], the CC50 is more than 100000 nM.
As usually defined, the inhibition is how much of the control response was suppressed. For `CN1C(=O)[C@@H](NC(=O)c2n[nH]c(Cc3ccccc3)n2)COc2ccc(-c3ccc(C#N)cc3)cc21`, the Activity entry with L-292, with HT-29 [11] and in the data set with HT-29 [17] was “Dose-Dependent Effect” throughout. For the same compound, the result in the data set with HT-29 [4] and in the data set with HT-29 [14] was inactive. Moreover, the inhibition in [5] is 100%; in data set [6] it was “Dose-Dependent Effect”; in data set [7], 100%; in [8], “Dose-Dependent Effect”; in data set [9], 100%; in [20] it was “Dose-Dependent Effect”. Also, the survival at 10 mg/kg in the data set with Mus musculus [10] came to 100%. Also, the outcome with Mus musculus [12], in the data set on Mus musculus [13] and in the data set on Mus musculus [15] was Active. In addition, the EC50 in the data set on HT-29 [1] is 1.7 nM. In addition, the survival at 2.5 mg/kg with Mus musculus [16] was found to be 66%. In addition, in the data set on Mus musculus [18], the survival at 5 mg/kg is 91%. Besides, in [3], the CC50 is more than 100000 nM. In addition, the inhibition result in data set [19] is “Active”.

The values above are taken from ChEMBL document CHEMBL5523692, “Discovery of novel biaryl benzoxazepinones as dual-mode receptor-interacting protein kinase-1 (RIPK1) inhibitors” (Bioorg Med Chem, 2024).
